We go through one molecule from patent US20140335135A1, “PHARMACEUTICAL COMPOSITION” (FERRING BV, priority 2011, published 2014).

Data set [1] can be described thus: Particle size distribution by optical microscopy (diameter of the coextensive circle). The class given is physicochemical. The procedure:
Two different methods were used to incorporate triptorelin into the hexyl substituted polylactide polymer. The first was a “separate milling and mixing” method in which the triptorelin was micronized using an SPEX 6700 Freezer/mill at −196° C. in liquid nitrogen (milling for 5 min), the resulting micronized powder being mixed with the hexyl substituted polylactide polymer by kneading in plastic bags until a homogeneous formulation was obtained (as verified by optical microscopy).
In the second method, lyophilised triptorelin (10% by weight of polymer or 5% by weight polymer or 2.5% by weight polymer) was incorporated into the polymer by a combined direct “cryo-milling-mixing” technique. The triptorelin was micronized together with the polymer in a cryo-mill (SPEX 6700 Freezer/mill) at −196 C for five minutes in liquid nitrogen. The particle size distribution in the formulations was analysed using an Optishot-2 microscope (Nikon, Tokyo, Japan) and ImageJ software.
The kneading provided a homogenous suspension (FIG. 1a) although the average diameter increased to 9.0 μm because some larger particles of more than 30 μm were formed due to agglomeration.

Data set [2] in a line: Solubility of triptorelin in hexyl substituted polylactide polymer. The data set is classed as physicochemical. The source says: Triptorelin is not soluble in the hexyl substituted polylactide polymer (which is a viscous liquid) because of its relatively high hydrophilicity. The lyophilized triptorelin was therefore micronized, by cryomilling or spray-drying, to ensure small particle size for incorporation into the polymer. Preferably the triptorelin (or salt/derivative thereof) is micronized/mixed with the polylactide at a temperature below the glass transition temperature of the polylactide, more preferably at temperature of around −196° C., so as to avoid melting and resulting increased viscosity of the polylactide.

As for `CC(C)C[C@H](NC(=O)[C@@H](Cc1c[nH]c2ccccc12)NC(=O)[C@H](Cc1ccc(O)cc1)NC(=O)[C@H](CO)NC(=O)[C@H](Cc1c[nH]c2ccccc12)NC(=O)[C@H](Cc1c[nH]cn1)NC(=O)[C@@H]1CCC(=O)N1)C(=O)N[C@@H](CCCNC(=N)N)C(=O)N1CCC[C@H]1C(=O)NCC(N)=O` [Triptorelin, L-Pyroglutamyl-L-histidyl-Ltryptophyl-L-seryl-L-tyrosyl-D-tryptophyl-L-eucy-L-arginy-L-prolyl-glycinamide], the “average diameter for the coextensive circle” value in data set [1] stood at 5.6 μm. For the same molecule, the “solubility in the hexyl substituted polylactide polymer” value in data set [2] is reported as “not soluble”.
